What follows are molecules tested against T1, human B1R (Homo sapiens, UniProt P46663) (assay: Functional assay at bradykinin receptor 1 (B1R): Ca2+ fluorescence (Fluo-4) in FLIPR/Novostar, antagonist mode). Conditions: test substance 10 µM; CHO K1 cells stably transfected with human B1R gene (hB1R-Zellen); agonist Lys-Des-Arg9-Bradykinin at EC80; % inhibition relative to maximal achievable inhibition; read-out: % Inhibierung (human B1R) bei 10 µM.
T1 construct: expressed in transfected cells; host or cells: CHO K1 cells (Chinese Hamster Ovary), stably transfected
T1 sequence (P46663 1-353): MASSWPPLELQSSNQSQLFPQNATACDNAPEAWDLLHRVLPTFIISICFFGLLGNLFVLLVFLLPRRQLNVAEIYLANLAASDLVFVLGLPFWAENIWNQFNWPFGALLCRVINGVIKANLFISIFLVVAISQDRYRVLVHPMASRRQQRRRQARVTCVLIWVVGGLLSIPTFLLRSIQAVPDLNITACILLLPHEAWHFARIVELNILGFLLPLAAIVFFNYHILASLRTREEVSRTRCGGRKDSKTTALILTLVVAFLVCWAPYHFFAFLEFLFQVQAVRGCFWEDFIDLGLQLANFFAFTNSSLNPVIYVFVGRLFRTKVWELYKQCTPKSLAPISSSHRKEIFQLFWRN
Format: cell-based
How it was run: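 Antagonism read as suppression of the Ca2+ rise in Fluo-4-loaded, hB1R-transfected CHO K1 cells when Lys-Des-Arg9-bradykinin (EC80) follows a 6–20 min compound preincubation. Maximal fluorescence counts, measured on FLIPR or Novostar, yield % inhibition relative to maximum; IC50 values come from concentration series run in duplicate or triplicate.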

`COc1cc(C)c(S(=O)(=O)Cc2c(C)nn(CC(=O)NC3CCC(c4ccncc4)CC3(C)C)c2C)c(C)c1` (stereo not drawn) [CC-172, N-(2,2-Dimethyl-4-pyridin-4-yl-cyclohexyl)-2-[4-[[(4-methoxy-2,6-dimethyl-phenyl)sulfonyl]-methyl]-3,5-dimethyl-1 H-pyrazol-1-yl]-acetamid] and `COc1cc(C)c(S(=O)(=O)Cc2cn(CC(=O)NC3CCC(c4ccncc4)CC3(C)C)nn2)c(C)c1` (stereo not drawn) [CC-178, N-(2,2-Dimethyl-4-pyridin-4-yl-cyclohexyl)-2-[4-[[(4-methoxy-2,6-dimethyl-phenyl)sulfonyl]-methyl]-1 H-[1,2,3]triazol-1-yl]-acetamid] are the same in inhibition at 10 µM: 100% for the first, 100% for the second.

Going from `COc1cc(C)c(S(=O)(=O)Cc2c(C)nn(CC(=O)NC3CCNCC3)c2C)c(C)c1` [CC-173, 2-[4-[[(4-Methoxy-2,6-dimethyl-phenyl)sulfonyl]-methyl]-3,5-dimethyl-1H-pyrazol-1-yl]-N-piperidin-4-yl-acetamid] to `COc1cc(C)c(S(=O)(=O)Cc2c(C)nn(CC(=O)NC3CCNCC3(C)C)c2C)c(C)c1` (stereo not drawn) [CC-180, N-(3,3-Dimethyl-piperidin-4-yl)-2-[4-[[(4-methoxy-2,6-dimethyl-phenyl)sulfonyl]-methyl]-3,5-dimethyl-1 H-pyrazol-1-yl]-acetamid], the inhibition at 10 µM rises from 85% to 98%.

Compared with `COc1cc(C)c(S(=O)(=O)Cc2c(C)nn(CC(=O)NC3CCC(NC4CC4)CC3(C)C)c2C)c(C)c1` (stereo not drawn) [CC-174, N-[4-(Cyclopropylamino)-2,2-dimethyl-cyclohexyl]-2-[4-([(4-methoxy-2,6-dimethyl-phenyl)sulfonyl]-methyl]-3,5-dimethyl-1 H-pyrazol-1-yl]-acetamid], `COc1cc(C)c(S(=O)(=O)Cc2cc(C)n(CC(=O)NC3CCC(NC4CC4)CC3(C)C)n2)c(C)c1` (stereo not drawn) [CC-177, N-[4-(Cyclopropylamino)-2,2-dimethyl-cyclohexyl]-2-[3-[[(4-methoxy-2,6-dimethyl-phenyl)sulfonyl]-methyl]-5-methyl-1 H-pyrazol-1-yl]-acetamid] is lower in inhibition at 10 µM: 100% for the first, 99% for the second.

`COc1cc(C)c(S(=O)(=O)Cc2cn(CC(=O)NC3CCC(NC4CC4)CC3(C)C)nn2)c(C)c1` (stereo not drawn) [CC-175, N-[4-(Cyclopropylamino)-2,2-dimethyl-cyclohexyl]-2-[4-[[(4-methoxy-2,6-dimethyl-phenyl)sulfonyl]-methyl]-1 H-[1,2,3]triazol-1-yl]-acetamid] and `COc1cc(C)c(S(=O)(=O)Cc2cn(CC(=O)NC3CCNCC3(C)C)nn2)c(C)c1` (stereo not drawn) [CC-176, N-(3,3-Dimethyl-piperidin-4-yl)-2-[4-[[(4-methoxy-2,6-dimethyl-phenyl)sulfonyl]-methyl]-1 H-[1,2,3]triazol-1-yl]-acetamid] are the same in inhibition at 10 µM: 100% for the first, 100% for the second.

First: COc1cc(C)c(S(=O)(=O)Cc2c(C)nn(CC(=O)NC3CCN(C(C)=O)CC3(C)C)c2C)c(C)c1 (stereo not drawn) [CC-179, N-(1-Acetyl-3,3-dimethyl-piperidin-4-yl)-2-[4-[[(4-methoxy-2,6-dimethyl-phenyl)sulfonyl]-methyl]-3,5-dimethyl-1 H-pyrazol-1-yl]-acetamid]
Second: COc1cc(C)c(S(=O)(=O)Cc2cn(CC(=O)NC3CCN(C)CC3(C)C)nn2)c(C)c1 (stereo not drawn) [CC-183, 2-[4-[[(4-Methoxy-2,6-dimethyl-phenyl)sulfonyl]-methyl]-1H-[1,2,3]triazol-1-yl]-N-(1,3,3-trimethyl-piperidin-4-yl)-acetamid]
The inhibition at 10 µM of the first is lower: 44% for the first, 100% for the second.

`COc1cc(C)c(S(=O)(=O)Cc2cn(CC(=O)N(C)C3CCNCC3(C)C)nn2)c(C)c1` (stereo not drawn) [CC-181, N-(3,3-Dimethyl-piperidin-4-yl)-2-[4-[[(4-methoxy-2,6-dimethyl-phenyl)sulfonyl]-methyl]-1 H-[1,2,3]-triazol-1-yl]-N-methyl-acetamid] and `COc1cc(C)c(S(=O)(=O)Cc2cn(CC(=O)NC3CCNCC3)nn2)c(C)c1` [CC-182, 2-[4-[[(4-Methoxy-2,6-dimethyl-phenyl)sulfonyl]-methyl]-1H-[1,2,3]triazol-1-yl]-N-piperidin-4-yl-acetamid] are the same in inhibition at 10 µM: 99% for the first, 99% for the second.

From patent publication EP2857388A1, “Azoles containing sulfone” (Grünenthal GmbH, priority 2013, dated 2015)
